# Data: ChEMBL document CHEMBL3832761, “MMV Pathogen Box Bioactivity Data” (2017)
# What was measured:
# [1] = tested on: Mycobacterium tuberculosis; assay: AntiMycobacterium tuberculosis activity 1-week GAST/Fe MIC (uM); format: functional; conditions: 168 h
# [2] = tested on: Mycobacterium tuberculosis; assay: AntiMycobacterium tuberculosis activity 2-week GAST/Fe MIC (uM); format: functional; conditions: 336 h
# [3] = tested on: Mycobacterium tuberculosis; assay: AntiMycobacterium tuberculosis activity 1-week 7H9/ADC/Tw MIC (uM); format: functional; conditions: 168 h
# [4] = tested on: Mycobacterium tuberculosis; assay: AntiMycobacterium tuberculosis activity 2-week 7H9/ADC/Tw MIC (uM); format: functional; conditions: 336 h
# [5] = tested on: Mycobacterium tuberculosis; assay: AntiMycobacterium tuberculosis activity 2-week Alamar Blue 7H9/ADC/Tw MIC (uM); format: functional; conditions: 336 h
# [6] = tested on: Mycobacterium tuberculosis; assay: AntiMycobacterium tuberculosis activity 1-week 7H9/glucose/BSA/Tx MIC (uM); format: functional; conditions: 168 h
# [7] = tested on: Mycobacterium tuberculosis; assay: AntiMycobacterium tuberculosis activity 2-week 7H9/glucose/BSA/Tx MIC (uM); format: functional; conditions: 336 h
# [8] = tested on: Mycobacterium tuberculosis; assay: AntiMycobacterium tuberculosis activity 1-week 7H9/DPPC/cholesterol/BSA/Tx MIC (uM); format: functional; conditions: 168 h
# [9] = tested on: Mycobacterium tuberculosis; assay: AntiMycobacterium tuberculosis activity 2-week 7H9/DPPC/cholesterol/BSA/Tx MIC (uM); format: functional; conditions: 336 h
# [10] = tested on: Mycobacterium tuberculosis; assay: AntiMycobacterium tuberculosis activity 1-week 7H9/cholesterol/BSA/Tx MIC (uM); format: functional; conditions: 168 h
# [11] = tested on: Mycobacterium tuberculosis; assay: AntiMycobacterium tuberculosis activity 2-week Alamar Blue 7H9/cholesterol/BSA/Tx MIC (uM); format: functional; conditions: 336 h
# [12] = tested on: Mycobacterium tuberculosis; assay: (§1) AntiMycobacterium tuberculosis activity day 10 in 7H9/2.5mM butyrate/pH6/0.1mM nitrite MIC90 (uM); format: functional; conditions: 240 h
# [13] = tested on: Mycobacterium tuberculosis; assay: AntiMycobacterium tuberculosis activity day 21 in 7H9/2.5mM butyrate/pH6/0.1mM nitrite MIC90 (uM); format: functional; conditions: 504 h
# [14] = tested on: Mycobacterium tuberculosis; assay: as §1; format: functional; conditions: 240 h; remark: listed apart in the source
# [15] = tested on: Mycobacterium tuberculosis; assay: AntiMycobacterium tuberculosis activity day 21 MIC99 in 7H9/2.5mM butyrate/pH6/0.1mM nitrite MIC99 (uM); format: functional; conditions: 504 h
# HepG2 [16] = assay: HepG2 galactose CC50 (uM) Cytotoxicity; format: functional; conditions: Homo sapiens, HepG2
# HepG2 [17] = assay: HepG2 glucose CC50 (uM) Cytotoxicity; format: functional; conditions: Homo sapiens, HepG2
# Plasmodium falciparum [18] = assay: Antimalarial activity: Asexual Blood Stage Plasmodium falciparum 3D7 IC50 (uM); format: functional, organism-based
# Plasmodium falciparum [19] = assay: Antimalarial activity: Asexual Blood Stage Plasmodium falciparum Dd2 IC50 (uM); format: functional, organism-based
# Plasmodium falciparum [20] = assay: Antimalarial activity: Asexual Blood Stage Plasmodium falciparum W2 IC50 (uM); format: functional, organism-based
# Plasmodium berghei [21] = assay: Antimalarial activity: Liver Stage Plasmodium berghei sporozoite Luciferase assay: inhibition at 10 uM (%); format: functional
# Plasmodium falciparum [22] = assay: Antimalarial activity: Gametocytes Plasmodium falciparum NF54 Gametocytes Stage V: inhibition at 10 uM (%); format: functional
# HepG2 [23] = assay: Cytotoxicity data HepG2 CC20 (uM); format: functional
# HepG2 [24] = assay: HepG2 inhibition at 10 uM (%) Cytotoxicity; format: functional; conditions: Homo sapiens
# [25] = HL60 CC50 (uM) Cytotoxicity; format: functional; conditions: HL-60
# Plasmodium berghei [26] = assay: Antimalarial activity: Liver Stage Plasmodium berghei sporozoite Luciferase assay IC50 (uM); format: functional, organism-based
# HepG2 [27] = assay: HepG2 CC50 (uM) Cytotoxicity; format: functional; conditions: Homo sapiens
Compound,IC50 (Plasmodium falciparum [18]),IC50 (Plasmodium falciparum [19]),IC50 (Plasmodium falciparum [20]),Inhibition (Plasmodium berghei [21]),Inhibition (Plasmodium falciparum [22]),CC20 (HepG2 [23]),inhibition at 10 µM (HepG2 [24]),CC50 [25],IC50 (Plasmodium berghei [26]),CC50 (HepG2 [27]),other results
COc1cccc(NC(=O)c2c(NC(=O)c3cccnc3)sc3c2CCC3)c1,–,–,–,–,–,–,–,–,–,–,MIC [1]: 9.4 µM; MIC [2]: 12.5 µM; MIC [3]: 12.5 µM; MIC [4]: 12.5 µM; MIC [5]: 12.5 µM; MIC [6]: 4.7 µM; MIC [7]: 6.25 µM; MIC [8]: 9.4 µM; MIC [9]: 50 µM; MIC [10]: 12.5 µM; MIC [11]: > 50 µM; MIC90 [12]: 3.12 µM; MIC90 [13]: > 50 µM; MIC90 [14]: > 50 µM; MIC [15]: > 50 µM; CC50 (HepG2 [16]): > 50 µM; CC50 (HepG2 [17]): > 50 µM
CCCS(=O)(=O)N1CCC(CO)(Cc2ccccc2C(F)(F)F)CC1,1.09 µM,0.99 µM,1.55 µM,43%,19%,>80 µM,0%,> 50 µM,–,–,–
O=C1COCc2ccc(Br)cc2N1Cc1ccc(C(F)(F)F)cc1,0.96 µM,3.06 µM,2.26 µM,2%,2%,38.4 µM,10%,> 50 µM,–,–,–
CC(=O)Nc1ccc(NC(=O)c2cc(-c3cc(Cl)ccc3O)n[nH]2)cc1,0.35 µM,0.48 µM,0.51 µM,0%,6%,>80 µM,7%,> 50 µM,–,–,–
O=C(NCCc1ccccc1)c1cc(-c2cccnc2)cnc1NCC1CC1,1.29 µM,2.29 µM,1.4 µM,39%,4%,12.9 µM,5%,> 12.5 µM,–,–,–
CCN(CC)CCCN1CCN(C(=O)c2cccc(-c3noc(C(F)(F)F)n3)c2)CC1,0.19 µM,0.85 µM,0.31 µM,4%,18%,>80 µM,0%,> 50 µM,–,–,–
CC(C)(C)c1cc(C(=O)N2CCN(c3nccnc3C#N)CC2)n(Cc2ccccc2)n1,0.6 µM,1 µM,1.3 µM,42%,8%,22.9 µM,0%,> 50 µM,–,–,–
CCCNC(=O)N1CCC2(CC1)CC(=O)c1cc(C)ccc1O2,2.06 µM,3.12 µM,1.57 µM,3%,1%,>80 µM,0%,> 50 µM,–,–,–
Nc1ncc(-c2cn[nH]c2)cc1-c1nc2cc(Cl)cnc2[nH]1,0.4 µM,–,–,0%,0%,2.82 µM,7%,> 50 µM,–,–,–
CCC(NC(=O)c1ccccc1NC(=O)c1ccc(C)cc1)C(=O)OC (centres undefined),0.16 µM,–,–,0%,29%,–,5%,> 50 µM,–,–,–
CC(C)(C)c1cc(C(=O)Nc2cccnc2)cc(C(=O)Nc2cccnc2)c1,0.9 µM,1.63 µM,1.88 µM,12%,10%,17.2 µM,19%,> 50 µM,–,–,–
COc1cccc2c(C)nc(N=C(N)N)nc12,1.06 µM,> 2 µM,–,42%,0%,8.38 µM,20%,> 50 µM,–,–,–
OCc1ccc(-c2cncc(Nc3cccc(Cl)c3)c2)cc1,0.03 µM,0.01 µM,–,57%,5%,20.5 µM,7%,> 25 µM,–,–,–
O=C(Nc1ccnc(-c2cccnc2)n1)c1cc(C(F)(F)F)cc(C(F)(F)F)c1,1.05 µM,> 2 µM,–,0%,10%,>80 µM,13%,> 50 µM,–,–,–
O=C(Nc1cccc(-c2ccc(NCCCN3CCCC3)nc2)c1)c1ccccc1,0.85 µM,2.74 µM,1.66 µM,25%,7%,17.2 µM,0%,> 50 µM,–,–,–
CN1CCN(c2nccc3nc(-c4ccc(F)c(F)c4)[nH]c23)CC1,1.13 µM,1.71 µM,2.11 µM,56%,32%,10.3 µM,–,–,> 10 µM,> 10 µM,–

Compound,IC50 (Plasmodium falciparum [18]),IC50 (Plasmodium falciparum [19]),IC50 (Plasmodium falciparum [20]),Inhibition (Plasmodium berghei [21]),Inhibition (Plasmodium falciparum [22]),CC20 (HepG2 [23]),inhibition at 10 µM (HepG2 [24]),CC50 [25],IC50 (Plasmodium berghei [26]),CC50 (HepG2 [27]),other results
FC(F)(F)c1cccc(-c2nc3c(NCc4ccncc4)nccc3[nH]2)c1,0.51 µM,0.78 µM,1.04 µM,62%,11%,14.6 µM,–,–,> 10 µM,> 10 µM,–
Cc1nc(-c2cccc(NCc3ccccc3)c2)[nH]c1C,1.94 µM,5.03 µM,2.59 µM,100%,16%,27.7 µM,–,–,4.59 µM,> 10 µM,–
Cc1cccc(C(=O)Nc2ccnc(N(C)C3CCN(CC(C)C)CC3)c2)c1,2.1 µM,5.18 µM,9.25 µM,66%,10%,13.7 µM,–,–,> 10 µM,> 10 µM,–
O=C(NC1CC1)c1ccc(N2CCC(Cc3ccccc3)CC2)nc1,1.33 µM,1.67 µM,0.82 µM,100%,28%,>80 µM,–,–,1.41 µM,> 10 µM,–
OCCc1ccc(Nc2nccc(-c3nnc4ccccn34)n2)cc1,1.08 µM,1.63 µM,0.69 µM,99%,11%,1.67 µM,–,–,1.47 µM,8.1 µM,–
CC(C)(C)CN1C(=O)C(c2ccccc2)(c2ccccc2)N=C1N,0.8 µM,1.5 µM,> 2 µM,25%,2%,1.17 µM,0%,6.5 µM,–,–,–
Cc1cccc(NC(=O)c2cc(S(=O)(=O)N(C)c3ccc(F)cc3)ccc2Cl)n1,1.58 µM,> 2 µM,1.07 µM,86%,3%,26.4 µM,–,–,6.77 µM,> 10 µM,–
O=C(NC1CCN(c2ccnc3ccccc23)C1)c1cccc(C(F)(F)F)c1 (centres undefined),0.71 µM,0.78 µM,2.06 µM,99%,1%,5.82 µM,–,–,6.54 µM,> 10 µM,–
CS(=O)(=O)c1cccc(-c2cnc3[nH]cc(-c4ccc(CCC(=O)O)cc4)c3c2)c1,0.5 µM,0.68 µM,0.91 µM,47%,38%,>80 µM,16%,> 50 µM,–,–,–
CN1CCN(c2nccc3[nH]c(-c4cccc(F)c4)cc23)CC1,1.46 µM,2.1 µM,2.63 µM,40%,29%,10.4 µM,2%,> 12.5 µM,–,–,–
Cc1cc(C(=O)Nc2ccc(-c3ccccc3)cc2)no1,0.82 µM,1.41 µM,0.54 µM,97%,24%,>80 µM,–,–,> 10 µM,> 10 µM,–
CNC(=O)C1Cc2c([nH]c3cc(Cl)ccc23)C2(CCN(CCc3ccccc3)CC2)N1 (centres undefined),0.86 µM,1.95 µM,4.55 µM,99%,33%,10 µM,–,–,4.51 µM,> 10 µM,–
COc1cncc(-c2cncc(N3CCN(c4ccncc4)CC3)n2)c1,0.1 µM,0.15 µM,0.18 µM,64%,12%,4.65 µM,–,–,> 7.5 µM,> 10 µM,–
NCC(=O)N1CCn2c(nc(-c3ccccc3)c2Nc2ccc3c(c2)OCO3)C1,0.64 µM,0.89 µM,0.54 µM,100%,56%,>80 µM,–,–,3.78 µM,> 10 µM,–
CCOc1ccc(-c2nc(NC(=O)CS(=O)(=O)c3ccccc3)sc2C)cc1,0.66 µM,1.8 µM,1.97 µM,59%,17%,20 µM,–,–,> 10 µM,> 10 µM,–
